# From patent US20210176992A1, “FU[…] COMBINATION OF A CL[…] AND AN AZOLE” (Bayer Aktiengesellschaft, priority 2018, published 2021)
# “And” between values parts separate entries of the source, which are not always exact repeats. Equal values may be shown once.
# Legend:
# [1] = tested on: DON content; assay: Field trial winter wheat 2017, deoxynivalenol quantification by LC-MS/MS; type: in vivo; details: Laacherhof 2017, application at growth stage 63-65, J1446 500 g/ha, prothioconazole 125 g a.i./ha, control 3583 ppb DON content
# Experimental: (§1) Impact of Different Compounds on Fusarium Infestation and the DON Content; Field Trial Winter Wheat 2017 at the Laacherhof, Germany
# (§2) Application was done on Jun. 1, 2017 at growth stage 63-65. Evaluation was done Jun. 20, 2017. Quantification of deoxynivalenol was performed by LC-MS/MS analysis using a Waters UPLC coupled to a Sciex API4000 mass spectrometer. The column used was a Waters Acquity HSS T3 (2.1×50 mm, 1.8 μm) and solvents were 2 mM ammonium acetate/1% acedic acid and methanol/2 mM ammonium acetate/1% acetic acid used in a 4 min gradient. The mass spectrometer was operated in negative ionization mode (MRM transitions: deoxynivalenol 355>265, 3-acetyl-deoxynivalenol 387>307, respectively). Quantification was performed by external calibration using reference compounds.
# (§3) On the other hand, whereas infestation was lower upon application of C. rosea J1446 alone (45 vs. 63%), DON reduction after application of the combination of prothioconazole and C. rosea J1446 was even bigger (60 vs. 30%).
# [2] = tested on: Fusarium; assay: Field trial winter wheat 2017, visual assessment of Fusarium control; type: in vivo; details: Laacherhof 2017, application at growth stage 63-65, evaluation Jun. 20, 2017, J1446 500 g/ha, prothioconazole 125 g a.i./ha, control 38% infestation
# Experimental: as §1, §2, §3
smiles,measurement,setting,value
"OC(Cc1ccccc1Cl)(Cn1nc[nH]c1=S)C1(Cl)CC1 (stereo not drawn) [Prothioconazole, prothioconazole]",DON Reduction,[1],41%
same,DON Reduction,[1]; listed as prothioconazole,40% and 41%
same,Visual Assessment Fusarium-Control,[2],66%
